Assay results published in US5288758A, “New urea derivatives, their preparation and their application in therapy” (priority 1991, dated 1994).

Target: acetylcholinesterase (Homo sapiens, UniProt P22303)
Assay: biochemical
Settings: method of Ellman et al., Biochem. Pharmacol. 7, 88-95 (1961); read-out: Inhibition of acetylcholinesterase activity, IC50

Chain of acetylcholinesterase (P22303 32-614): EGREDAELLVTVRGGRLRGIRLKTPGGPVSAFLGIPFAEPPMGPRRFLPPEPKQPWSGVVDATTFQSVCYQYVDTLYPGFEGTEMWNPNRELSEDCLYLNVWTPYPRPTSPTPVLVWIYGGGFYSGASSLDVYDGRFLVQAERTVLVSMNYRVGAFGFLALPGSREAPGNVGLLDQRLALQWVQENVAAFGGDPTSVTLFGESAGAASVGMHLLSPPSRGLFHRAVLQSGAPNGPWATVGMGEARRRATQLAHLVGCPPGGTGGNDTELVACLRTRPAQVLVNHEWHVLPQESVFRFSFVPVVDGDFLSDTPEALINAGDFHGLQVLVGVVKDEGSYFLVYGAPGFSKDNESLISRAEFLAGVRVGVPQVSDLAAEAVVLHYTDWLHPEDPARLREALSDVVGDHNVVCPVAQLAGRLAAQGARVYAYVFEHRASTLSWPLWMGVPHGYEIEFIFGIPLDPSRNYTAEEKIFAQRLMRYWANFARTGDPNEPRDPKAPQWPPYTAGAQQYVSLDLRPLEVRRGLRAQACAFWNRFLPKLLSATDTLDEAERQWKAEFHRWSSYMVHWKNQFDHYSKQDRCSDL

Compound | IC50
CN(CCCCCNC(=S)NC(=O)c1ccccc1)CC1CCCCC1 [Compound 5, 1-Benzoyl-3-[5-(N-cyclohexylmethyl-N-methylamino)pentyl]thiourea] | 50 nM
COc1ccc(C(=O)NC(=S)NCCOCCN(C)Cc2ccccc2)cc1 [Compound 11] | 26 nM
CN(CCOCCNC(=S)NC(=O)c1ccc(Cl)cc1)Cc1ccccc1 [Compound 12] | 30 nM
CN(CCOCCNC(=S)NC(=O)c1cccc([N+](=O)[O-])c1)Cc1ccccc1 [Compound 13] | 15 nM
CN(CCOCCNC(=S)NC(=O)c1ccc(Cl)c(Cl)c1)Cc1ccccc1 [Compound 14] | 55 nM
CN(CCOCCNC(=S)NC(=O)c1ccc2ccccc2c1)Cc1ccccc1 [Compound 16] | 100 nM
